# Measurements taken from patent US20120149661A1, “TETRA-SUBSTITUTED HETEROARYL COMPOUNDS AND THEIR USE AS MDM2 AND/OR MDM4 MODULATORS” (NOVARTIS AG, priority 2009, published 2012).
row,SMILES,melting point [°C]
1,"O=Cc1cc(-c2nc(C(=O)O)c(-c3ccc(F)c(Cl)c3)n2-c2cccc(Cl)c2F)cs1 [Example 293, 5-(3-Chloro-4-fluoro-phenyl)-1-(3-chloro-2-fluoro-phenyl)-2-(5-formyl-thiophen-3-yl)-1H-imidazole-4-carboxylic acid]",157 to 160
2,"CCNC(=O)c1nc(-c2ccc(C)c(C)c2)n(-c2cc(Cl)ccc2C)c1-c1cccc(Cl)c1 [Example 1, 1-(5-Chloro-2-methyl-phenyl)-5-(3-chloro-phenyl)-2-(3,4-dimethyl-phenyl)-1H-imidazole-4-carboxylic acid ethylamide]",141 to 143
3,"Cc1ccc(-c2nc(C#N)c(-c3cccc(Cl)c3)n2-c2cc(Cl)ccc2C)cc1C [Example 3, 1-(5-chloro-2-methyl-phenyl)-5-(3-chloro-phenyl)-2-(3,4-dimethyl-phenyl)-1H-imidazole-4-nitrile]",218
